Laboratory results: patent US20230158102A1 (priority 2020, published 2023)
“Also recorded” adds a separate entry of the source. Like-named read-outs stand apart in the source and are kept apart here. Numbered stars: 1 amine (or outer) side, 2 acyl side, 3 side chain; on linkers, the order of the positions; unused ones are H or OH. Bridge positions count the residues as written; N and C are the ends. Square brackets hold non-standard residues; d marks the D form. Peptide text beside a SMILES is read from it. X2 = CC[C@H](C)[C@@H](N[*:1])[C@@H](O)CC(=O)[*:2]; NMeY = CN[C@@H](Cc1ccc(O)cc1)C(=O)O; dNMeL = CN[C@H](CC(C)C)C(=O)O; Aib = CC(C)(N)C(=O)O

Experiments:
[1] = tested on: SARS-CoV-2 (COVID-19); assay: Study APLICOV-PC (NCT04382066): efficacy in patients hospitalised for COVID-19; assay type: in vivo, human
[2] = tested on: C-reactive protein; assay: C-reactive protein tests in COVID-19 patients treated with PLD; assay type: in vivo, human
Experimental: The effect of PLD on inflammatory cytokines was also measured for patients 5, 7 and 9 and the results of C-reactive protein tests are shown in FIG. 36.

[3] = tested on: Huh-7 cells; conditions: Huh-7, 50 nM, 5 nM and 0.5 nM, 24 hpi
[4] = tested on: HCoV-229E; assay type: cell-based
[5] = in vitro; conditions: human
[6] = tested on: HIV-1 (recombinant virus NL4.3 Luc); assay: microbe, parasite or virus in culture; assay type: cell-based; conditions: Human immunodeficiency virus 1, MT2, read-out: IC50 (antiviral activity); MT-2 cells infected with NL4.3 Luc, 48 hours
[7] = tested on: MT-2 cells
[8] = tested on: HIV-1 (recombinant virus NL4.3 Luc); assay: microbe, parasite or virus in culture; assay type: cell-based; conditions: Human immunodeficiency virus 1, PBMC, read-out: IC50 (antiviral activity); preactivated PBMCs infected with NL4.3 Luc, 48 hours
[9] = interim results, 8 evaluable patients

Row | SMILES | Clinical course (single patient) ([1]; PLD 1.5 mg×3, interim results) | Clinical course (single patient) ([1]; PLD 2.0 mg×3, interim results) | PCR COVID 19 test at day 7 (single patient) ([1]; PLD 2.0 mg×3, interim results) | Removal of viral burden ([1]; ad hoc analysis of the first cohort at 1.5 mg and 2 mg) | Evaluable patients requiring post PLD specific anti COVID 19 therapy [1, 9] | Evaluable patients with SARS-CoV-2 PCR conversion to negative [1, 9] | Evaluable patients with disease control and major clinical improvements [1, 9] | Deaths on study ([1]; interim results, 9 patients) | Need for mechanical ventilation or ICU admission ([1]; interim results, 9 patients) | Acute fall of C-reactive protein seen by day ([2]; patient 5 (PLD 1.5 mg×3)) [days] | Acute fall of C-reactive protein seen by day ([2]; patients 7 and 9 (PLD 2.0 mg×3)) [days] | Cell growth / viability (fluorescence images) [3] | Antiviral activity (fluorescence images) [4] | CC50 [5] [µM] | IC50 [6] [µM] | Toxic concentrations not reached at [7] [µM] | IC50 [8] [µM]
1 | CC[C@H](C)[C@H]1NC(=O)[C@@H](NC(=O)C(CC(C)C)N(C)C(=O)[C@@H]2CCCN2C(=O)C(C)=O)[C@@H](C)OC(=O)[C@H](Cc2ccc(OC)cc2)N(C)C(=O)[C@@H]2CCCN2C(=O)[C@H](CC(C)C)NC(=O)[C@@H](C)C(=O)[C@H](C(C)C)OC(=O)C[C@@H]1O (stereo in doubt) [PLD, (−)-(3S,6R,7S,10R,11S,15S,17S,20S,25aS)-11-hydroxy-3-(4-methoxybenzyl)-2,6,17-trimethyl-15-(1-methylethyl)-7-[[(2R)-4-methyl-2-[methyl[[(2S)-1-(2-oxopropanoyl)pyrrolidin-2-yl]carbonyl]amino]pentanoyl]amino]-10-[(1S)-1-methylpropyl]-20-(2-methylpropyl)tetradecahydro-15H-pyrrolo[2,1-f]-[1,15,4,7,10,20]dioxatetrazacyclotricosine-1,4,8,13,16,18,21(17H)-heptone] | Acute clinical improvement; also recorded: lack of improvement; also recorded: prevented clinical deterioration; also recorded: Major clinical improvement | major clinical improvement | still positive | complete removal of viral burden was noted in the vast majority of patients | 2 out of 8 | 6 out of 8 | 6 out of 8 | no deaths on study | none of the patients required mechanical ventilation or ICU admission | ≤ 2 | ≤ 3 | cells remain viable at all concentrations | remarkable antiviral properties are seen across all concentrations |  |  |  | 
2 | CC[C@H](C)[C@H]1NC(=O)[C@@H](NC(=O)[C@@H](CC(C)C)NC)[C@@H](C)OC(=O)[C@H](Cc2ccc(OC)cc2)N(C)C(=O)[C@@H]2CCCN2C(=O)[C@H](CC(C)C)NC(=O)C(C)(C)NC(=O)C[C@@H]1O [Compound 3] (H-[dNMeL]T[X2][Aib]LP[NMeY](Me); ester 2-C) |  |  |  |  |  |  |  |  |  |  |  |  |  | ~27 | 1.39 | > 57.3 | 0.16
